Measured values published in US20230271770A1, “Anti-Viral Pharmaceutical Formulations Administered Via Devices for Lung Targeted Delivery” (priority 2020, published 2023).
Read-outs that look alike come from different tables or passages of the source.

Columns and labels:
[1] = tested on: SARS-CoV-2; conditions: Reference [4]; read-out: EC 50, for SARS-Cov2, Treatment 48 hrs; cited from earlier work
[2] = In-line Cascade Impactor (Andersen) evaluation, MDI actuator through elbow connection and ventilator tubing; assay type: physicochemical; set-up: Delivered <1.1 mcm / Delivered <4.7 mcm: unit not given here; conditions: Alveoli, in-Line Tube (55 cm), HCQB-e, connection w/inner channel, Ave, 5% EtOH, 200 mcg
Description: An example of a ventilator device, for example ventilator device 1700A, was tested and compared to a self-administrable, handheld MDI to determine the target site delivery efficiency in the ventilator circuit as compared to the MDI delivery efficiency without the ventilator circuit (e.g. no elbow connector or ventilator tubing).
Prime HCQ valve by discharging a predetermined number of actuations to waste. Discharge 10 actuations with actuator H004B-a into the cascade impaction sampling apparatus through an elbow connection w/inner channel and an in-line tubing (55 cm long).
Prime HCQ valve by discharging a predetermined number of actuations to waste. Discharge 10 actuations with actuator H004B-c into the cascade impaction sampling apparatus through an elbow connection with an inner channel and an in-line tubing (55 cm long).
Prime HCQ valve by discharging a predetermined number of actuations to waste. […]

[3] = tested on: SARS-CoV-2; conditions: Reference [3], cited from earlier work
[4] = tested on: SARS-CoV-2; conditions: Reference [3]; read-out: EC 50, for SARS-Cov2, Treatment 24 hrs; cited from earlier work

For `NC(=O)c1ncn([C@@H]2O[C@H](CO)[C@@H](O)[C@H]2O)n1` [Ribavirin], the EC50 [1] is given as 106 µM.

With `CCN(CCO)CCCC(C)Nc1ccnc2cc(Cl)ccc12` (stereo not shown) [HICQ Base] the “Delivery Rate” value ([2]; <1.1 mcm) was 33.0% and the “Delivered <1.1 mcm” value [2] was 66.0.

For `CCN(CC)CCCC(C)Nc1ccnc2cc(Cl)ccc12` (stereo not shown) [CQ, chloroquine], the EC50 [1] is given as 1.13 µM, the EC50 ([3]; read-out: EC 50, for SARS-Cov2, Prophylactic Treatment 24 hrs) is given as over 100 µM and the EC50 ([3]; read-out: EC 50, for SARS-Cov2, Prophylactic Treatment 48 hrs) is given as 18 µM. The EC50 [4] was 23.9 µM.
